Experimental data taken from US20070275960A1, “Phenyl and pyridyl compounds for inflammation and immune-related uses” (Synta Pharmaceuticals Corp., priority 2006, published 2007).
pIC50: −log10 of the molar value. Structures can show the parent of a compound that is named as a salt.

System: IL-2 production
Test: Inhibition of IL-2 production in PHA-activated Jurkat cells (ELISA)
Type: cell-based
Conditions: PHA 2.5 μg/mL, 20 hours at 37° C., IL-2 by ELISA
Description: Jurkat cells were placed in a 96 well plate (0.5 million cells per well in 1% FBS medium) then a test compound of this invention was added at different concentrations. After 10 minutes, the cells were activated with PHA (final concentration 2.5 μg/mL) and incubated for 20 hours at 37° C. under CO2. The final volume was 200 μL. Following incubation, the cells were centrifuged and the supernatants collected and stored at −70° C. prior to assaying for IL-2 production. A commercial ELISA kit (IL-2 Eli-pair, Diaclone Research, Besancon, France) was used to detect production of IL-2, from which dose response curves were obtained. The IC50 value was calculated as the concentration at which 50% of maximum IL-2 production after stimulation was inhibited versus a non-stimulation control.

Row | Structure (SMILES) | pIC50 (Homo sapiens, Jurkat, 20 h) | other results
1 | COC(=O)c1cc(C)c(-c2ccc(NC(=O)c3c(F)cccc3F)cc2)s1 [Compound 4, 5-[4-(2,6-Difluoro-benzoylamino)-phenyl]-4-methyl-thiophene-2-carboxylic acid methyl ester] | 9.00 | –
2 | Cc1cc(-c2ccccn2)sc1-c1ccc(NC(=O)c2snnc2C)cc1 [Compound 100, 4-Methyl-[1,2,3]thiadiazole-5-carboxylic acid [4-(3-methyl-5-pyridin-2-yl-thiophen-2-yl)-phenyl]-amide, hydrochloride] | – | pIC50 (hydrochloride): 7.98
3 | COC(=O)c1cc(-c2ccc(NC(=O)c3c(F)cccc3F)cc2)c(C)o1 [Compound 8, 4-[4-(2,6-Difluoro-benzoylamino)-phenyl]-5-methyl-furan-2-carboxylic acid methyl ester] | 8.15 | –
4 | Cc1cnccc1C(=O)Nc1ccc(-c2sc(N3CCOCC3)nc2C)cc1 [Compound 10, 3-Methyl-N-[4-(4-methyl-2-morpholin-4-yl-thiazol-5-yl)-phenyl]-isonicotinamide] | 6.63 | –
5 | Cc1cnccc1C(=O)Nc1ccc(-c2sc(-c3ncco3)cc2C)cc1 [Compound 109, 3-Methyl-N-[4-(3-methyl-5-oxazol-2-yl-thiophen-2-yl)-phenyl]-isonicotinamide] | – | pIC50: 8.57
6 | COC(=O)c1cc(-c2ccc(NC(=O)c3ccncc3C)cc2)c(C)s1 [Compound 2, 5-Methyl-4-{4-[(3-methyl-pyridine-4-carbonyl)-amino]-phenyl}-thiophene-2-carboxylic acid methyl ester] | 8.52 | –
7 | Cc1cnccc1C(=O)Nc1ccc(-c2sc(-c3cncnc3)cc2C)cc1 [Compound 97, 3-Methyl-N-[4-(3-methyl-5-pyrimidin-5-yl-thiophen-2-yl)-phenyl]-isonicotinamide] | 8.14 | –
8 | Cc1cc(-c2ccncc2)sc1-c1ccc(NC(=O)c2snnc2C)cc1 [Compound 99, 4-Methyl-[1,2,3]thiadiazole-5-carboxylic acid [4-(3-methyl-5-pyridin-4-yl-thiophen-2-yl)-phenyl]-amide, hydrochloride] | 8.28 | –
9 | Cc1sc(-c2cnco2)cc1-c1ccc(NC(=O)c2c(F)cccc2F)cc1 [Compound 3, 2,6-Difluoro-N-[4-(2-methyl-5-oxazol-5-yl-thiophen-3-yl)-phenyl]-benzamide] | 8.52 | –
10 | Cc1cc(-c2ccncc2)sc1-c1ccc(NC(=O)c2snnc2C)cc1 [Compound 118, 4-Methyl-[1,2,3]thiadiazole-5-carboxylic acid [4-(3-methyl-5-pyridin-4-yl-thiophen-2-yl)-phenyl]-amide] | – | pIC50: 8.21
11 | Cc1cc(-c2ncco2)sc1-c1ccc(NC(=O)c2c(F)cccc2F)cc1 [Compound 39, 2,6-Difluoro-N-[4-(3-methyl-5-oxazol-2-yl-thiophen-2-yl)-phenyl]-benzamide] | 9.00 | –
12 | Cc1cc(-c2ccno2)sc1-c1ccc(NC(=O)c2cccn2C)cc1 [Compound 103, 1-Methyl-1H-pyrrol-2-carboxylic acid [4-(3-methyl-5-isoxazol-5-yl-thiophen-2-yl)-phenyl]-amide] | 8.52 | –
13 | Cc1cnccc1C(=O)Nc1ccc(-c2sc(-c3ccno3)cc2C)cc1 [Compound 95, 3-Methyl-N-[4-(3-methyl-5-isoxazol-5-yl-thiophen-2-yl)-phenyl]-isonicotinamide, hydrochloride] | – | pIC50 (hydrochloride): 8.36
14 | Cc1cc(-c2ncco2)sc1-c1ccc(NC(=O)c2snnc2C)cc1 [Compound 92, 4-Methyl-[1,2,3]thiadiazole-5-carboxylic acid [4-(3-methyl-5-oxazol-2-yl-thiophen-2-yl)-phenyl]-amide] | 8.40 | –
15 | Cc1cc(-c2ccccn2)sc1-c1ccc(NC(=O)c2snnc2C)cc1 [Compound 119, 4-Methyl-[1,2,3]thiadiazole-5-carboxylic acid [4-(3-methyl-5-pyridin-2-yl-thiophen-2-yl)-phenyl]-amide] | – | pIC50: 8.32

More lines, main results first:

Row | pIC50 (Homo sapiens, Jurkat, 20 h) | Structure (SMILES) | other results
16 | 8.55 | Cc1cncnc1C(=O)Nc1ccc(-c2sc(-c3ccno3)cc2C)cc1 [Compound 107, 5-Methyl-pyrimidine-4-carboxylic acid [4-(3-methyl-5-isoxazol-5-yl-thiophen-2-yl)-phenyl]-amide] | –
17 | 7.08 | Cc1cc(-c2ccno2)sc1-c1ccc(NC(=O)c2csnn2)cc1 [Compound 106, [1,2,3]thiadiazol-4-carboxylic acid [4-(3-methyl-5-isoxazol-5-yl-thiophen-2-yl)-phenyl]-amide] | –
18 | 8.02 | Cc1cncnc1C(=O)Nc1ccc(-c2sc(-c3cnco3)cc2C)cc1 [Compound 115, 5-Methyl-pyrimidine-4-carboxylic acid [4-(3-methyl-5-oxazol-5-yl-thiophen-2-yl)-phenyl]-amide] | –
19 | 8.60 | Cc1cc(-c2ccno2)sc1-c1ccc(NC(=O)Nc2c(F)cccc2F)cc1 [Compound 125, 1-(2,6-difluoro-phenyl)-3-[4-(5-isoxazol-5-yl-3-methyl-thiophen-2-yl)-phenyl]-urea] | –
20 | 8.32 | Cc1cc(-c2cnco2)sc1-c1ccc(NC(=O)c2cccn2C)cc1 [Compound 116, 1-Methyl-1H-pyrrol-2-carboxylic acid [4-(3-methyl-5-oxazol-5-yl-thiophen-2-yl)-phenyl]-amide] | –
21 | 7.13 | Cc1cc(-c2cnco2)sc1-c1ccc(NCc2ccncc2F)cc1 [Compound 129, (3-Fluoro-pyridin-4-ylmethyl)-[4-(5-oxazol-5-yl-3-methyl-thiophen-2-yl)-phenyl]-amine] | –
22 | 8.07 | Cc1cnccc1C(=O)Nc1ccc(-c2cc(-c3ncco3)sc2C)cc1 [Compound 124, 3-Methyl-N-[4-(2-methyl-5-oxazol-2-yl-thiophen-3-yl)-phenyl]-isonicotinamide] | –
23 | 8.12 | Cc1cc(-c2ccno2)sc1-c1ccc(NC(=O)c2cnsc2)cc1 [Compound 105, Isothiazol-4-carboxylic acid [4-(3-methyl-5-isoxazol-5-yl-thiophen-2-yl)-phenyl]-amide] | –
24 | 8.00 | Cc1cnccc1C(=O)Nc1ccc(-c2sc(-c3ccno3)cc2Cl)cc1 [Compound 113, 3-Methyl-N-[4-(3-chloro-5-isoxazol-5-yl-thiophen-2-yl)-phenyl]-isonicotinamide] | –
25 | 7.39 | Cc1cc(-c2cnco2)sc1-c1ccc(NC(=O)Nc2ccncc2F)cc1 [Compound 127, 1-(3-fluoro-pyridin-4-yl)-3-[4-(5-oxazol-5-yl-3-methyl-thiophen-2-yl)-phenyl]-urea] | –
26 | < 6.00 | Cc1cc(-c2ccno2)sc1-c1ccc(NC(=O)c2ccnn2C)cc1 [Compound 104, 1-Methyl-1H-pyrazol-5-carboxylic acid [4-(3-methyl-5-isoxazol-5-yl-thiophen-2-yl)-phenyl]-amide] | –
27 | 8.12 | Cc1cc(-c2cnco2)sc1-c1ccc(NC(=O)c2scnc2Cl)cc1 [Compound 110, 4-Chloro-thiazol-5-carboxylic acid [4-(3-methyl-5-oxazol-5-yl-thiophen-2-yl)-phenyl]-amide] | –
28 | 8.72 | Cc1sc(-c2ncco2)cc1-c1ccc(NC(=O)c2c(F)cccc2F)cc1 [Compound 122, 2,6-Difluoro-N-[4-(2-methyl-5-oxazol-2yl-thiophen-3-yl)-phenyl]-benzamide] | –
29 | 7.31 | Cc1cc[nH]c1C(=O)Nc1ccc(-c2sc(-c3ccno3)cc2C)cc1 [Compound 117, 3-Methyl-1H-pyrrol-2-carboxylic acid [4-(3-methyl-5-isoxazol-5-yl-thiophen-2-yl)-phenyl]-amide] | –
